Where a name gives a salt, the structure may show the parent alone.
The compounds below were run against T1, Human-recombinant-S-Adenosyl-L-Homocysteine Hydrolase (Homo sapiens, UniProt P23526) (assay: Measurement of enzyme inhibitory activity (hydrolysis of S-Adenosyl-L-Homocysteine, HPLC)). Conditions: S-Adenosyl-L-Homocysteine 10 μM, pH 7.2, 37° C., 15 min.
T1 construct: purchased Diazyme Laboratories
T1 sequence (P23526 whole entry): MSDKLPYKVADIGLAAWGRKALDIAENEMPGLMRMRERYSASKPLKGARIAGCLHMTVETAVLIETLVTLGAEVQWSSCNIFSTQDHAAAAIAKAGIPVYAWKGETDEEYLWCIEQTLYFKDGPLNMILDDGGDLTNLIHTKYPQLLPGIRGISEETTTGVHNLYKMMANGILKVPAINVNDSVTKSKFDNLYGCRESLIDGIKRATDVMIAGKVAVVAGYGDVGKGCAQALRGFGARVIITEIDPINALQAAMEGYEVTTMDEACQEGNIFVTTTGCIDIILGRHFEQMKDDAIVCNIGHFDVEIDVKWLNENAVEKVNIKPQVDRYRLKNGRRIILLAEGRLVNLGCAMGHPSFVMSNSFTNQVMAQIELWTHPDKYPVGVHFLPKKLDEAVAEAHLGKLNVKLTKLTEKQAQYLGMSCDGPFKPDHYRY
Assay type: biochemical
Method: The enzyme inhibitory activity of the compounds of the Examples was measured using the hydrolysis activity of S-Adenosyl-L-Homocysteine as an index. The measurement method was modification of the method of Henry H. Richards et al. (J. Biol. Chem. 253, 4476-4480, 1978). That is, S-Adenosyl-L-Homocysteine (10 μM) and Adenosine Deaminase (Roche) (4 units) were added to 50 mM phosphate buffer (pH 7.2, containing 1 mM EDTA) with the total amount being 200 μl, and to the solution were added a test substance and then Human-recombinant-S-Adenosyl-L-Homocysteine Hydrolase (50 ng, Diazyme Laboratories) to start the reaction, and the mixture was incubated at 37° C. for 15 min. The reaction was quenched by the addition of 1N aqueous perchloric solution (20 μl), and the mixture was centrifuged under the conditions of 10000 rpm, 5 min, 4° C. The supernatant was collected, and the amount of S-Adenosyl-L-Homocysteine after the reaction was quantified by HPLC. The column used was a reversed-phase column. The detailed conditions of HPLC were as follows.
column used: Wakopak^R HandyODS 150*4.6 mm (Wako Pure Chemical Industries, Ltd.) elution condition: 1.0 ml/min elution solvent: 0.1M acetate buffer (pH 4.0) containing 10 mM 1-heptanesulfonic acid containing 4% acetonitrile wavelength: 258 nm (UV) The inhibitory rate was determined with the amount of decrease in S-Adenosyl-L-Homocysteine before and after the reaction without using the test substance as 100%.
Inhibitory rate (%)={(amount of decrease of S-Adenosyl-L-Homocysteine in the presence of test substance)/(amount of decrease of S-Adenosyl-L-Homocysteine in the absence of test substance)}×100
For `Cc1cc2oc(=O)n(C)c2cc1N(CC(=O)NCCNC(C)C)CC(=O)N(C)N1Cc2ccccc2C1` [Example 190, N^2-{2-[1,3-dihydro-2H-isoindol-2-yl(methyl)amino]-2-oxoethyl}-N^2-(3,6-dimethyl-1,3-benzoxazol-2(3H)-on-5-yl)-N^1-[2-(isopropylamino)ethyl]glycinamide], the IC50 was 88 nM.
`CCNCCNC(=O)CN(CC(=O)N(C)N1Cc2cccc(F)c2C1)c1ccc(-c2noc(C)n2)cc1C` [Example 205, N^2-{2-[(4-fluoro-1,3-dihydro-2H-isoindol-2-yl)(methyl)amino]-2-oxoethyl}-N^2-[2-methyl-4-(5-methyl-1,2,4-oxadiazol-3-yl)phenyl]-N^1-[2-(ethylamino)ethyl]glycinamide] was tested, and the IC50 was 48 nM.
`Cc1cc2onc(C)c2cc1N(CC(=O)NC[C@@H]1CCCN1)CC(=O)N(C)N1Cc2ccccc2C1` [Example 328, N^2-{2-[1,3-dihydro-2H-isoindol-2-yl(methyl)amino]-2-oxoethyl}-N^2-(3,6-dimethyl-1,2-benzisoxazol-5-yl)-N^1-[(2S)-pyrrolidin-2-ylmethyl]glycinamide dihydrochloride] showed an IC50 of 150 nM.
For `CCNCCNC(=O)CN(CC(=O)N(C)N1Cc2ccccc2C1)c1ccc(-n2cc(C(N)=O)cn2)cc1C` [Example 303, N^2-{4-[4-(aminocarbonyl)-1H-pyrazol-1-yl]-2-methylphenyl}-N^2-{2-[1,3-dihydro-2H-isoindol-2-yl(methyl)amino]-2-oxoethyl}-N^1-[2-(ethylamino)ethyl]glycinamide dihydrochloride], the IC50 was 41 nM.
`CCNCCNC(=O)CN(CC(=O)N(C)N1Cc2ccccc2C1)c1cc2c(cc1C)N(CC)C(=O)CC2` [Example 177, N^2-{2-[1,3-dihydro-2H-isoindol-2-yl(methyl)amino]-2-oxoethyl}-N^2-(1-ethyl-7-methyl-2-oxo-1,2,3,4-tetrahydroquinolin-6-yl)-N^1-[2-(ethylamino)ethyl]glycinamide] was tested, and the IC50 was 46 nM.
Compound `CCNCCNC(=O)CN(CC(=O)N(C)N1Cc2ccccc2C1)c1cc(-c2ncccn2)ccc1C` [Example 129, N^2-{2-[1,3-dihydro-2H-isoindol-2-yl(methyl)amino]-2-oxoethyl}-N^2-(2-methyl-5-pyrimidin-2-ylphenyl)-N^1-[2-(ethylamino)ethyl]glycinamide] has an IC50 of 10 nM.
`CCNCCNC(=O)CN(CC(=O)N(C)N1Cc2ccccc2C1)c1ccc(-c2nc(C(N)=O)co2)cc1C` [Example 309, N^2-{4-[4-(aminocarbonyl)-1,3-oxazol-2-yl]-2-methylphenyl}-N^2-{2-[1,3-dihydro-2H-isoindol-2-yl(methyl)amino]-2-oxoethyl}-N^1-[2-(ethylamino)ethyl]glycinamide dihydrochloride] gave an IC50 of 23 nM.
`CCNCCNC(=O)CN(CC(=O)N(C)N1Cc2ccccc2C1)c1cc(-c2noc(C(F)(F)F)n2)ccc1C` [Example 287, N^2-{2-[1,3-dihydro-2H-isoindol-2-yl(methyl)amino]-2-oxoethyl}-N^2-{2-methyl-5-[5-(trifluoromethyl)-1,2,4-oxadiazol-3-yl]phenyl}-N^1-[2-(ethylamino)ethyl]glycinamide dihydrochloride] gave an IC50 of 58 nM.
In the case of `CCNCCNC(=O)CN(CC(=O)N(C)N1Cc2ccccc2C1)c1ccc(-c2noc(C(F)(F)F)n2)cc1C` [Example 289, N^2-{2-[1,3-dihydro-2H-isoindol-2-yl(methyl)amino]-2-oxoethyl}-N^2-{2-methyl-4-[5-(trifluoromethyl)-1,2,4-oxadiazol-3-yl]phenyl}-N^1-[2-(ethylamino)ethyl]glycinamide dihydrochloride], the IC50 is reported as 76 nM.
Compound `CCNCCNC(=O)CN(CC(=O)N(C)N1Cc2ccccc2C1)c1ccc(C(C)=O)cc1C` [Example 210, N^2-(4-acetyl-2-methylphenyl)-N^2-{2-[1,3-dihydro-2H-isoindol-2-yl(methyl)amino]-2-oxoethyl}-N^1-[2-(ethylamino)ethyl]glycinamide] has an IC50 of 34 nM.
Work on `CCNCCNC(=O)CN(CC(=O)N(C)N1Cc2cccc(F)c2C1)c1cc2c(cc1C)CCC2=O` [Example 216, N^2-{2-[(4-fluoro-1,3-dihydro-2H-isoindol-2-yl)(methyl)amino]-2-oxoethyl}-N^2-(6-methyl-3-oxo-2,3-dihydro-1H-inden-5-yl)-N^1-[2-(ethylamino)ethyl]glycinamide] yielded an IC50 of 33 nM.
Work on `CCNCCNC(=O)CN(CC(=O)N(C)N1Cc2ccc(F)cc2C1)c1cc2c(cnn2C)cc1C` [Example 259, N^2-(1,5-dimethyl-1H-indazol-6-yl)-N^2-{2-[(5-fluoro-1,3-dihydro-2H-isoindol-2-yl)(methyl)amino]-2-oxoethyl}-N^1-[2-(ethylamino)ethyl]glycinamide hydrochloride] yielded an IC50 of 30 nM.
`Cc1noc(-c2ccc(C)c(N(CC(=O)NCCNC(C)C)CC(=O)N(C)N3Cc4ccccc4C3)c2)n1` [Example 84, N^2-{2-[1,3-dihydro-2H-isoindol-2-yl(methyl)amino]-2-oxoethyl}-N^2-[2-methyl-5-(3-methyl-1,2,4-oxadiazol-5-yl)phenyl]-N^1-[2-(isopropylamino)ethyl]glycinamide] gave an IC50 of 34 nM.
In the case of `CCNCCNC(=O)CN(CC(=O)N(C)N1Cc2ccc(F)cc2C1)c1ccc(-c2nc(C)no2)cc1C` [Example 231, N^2-{2-[(5-fluoro-1,3-dihydro-2H-isoindol-2-yl)(methyl)amino]-2-oxoethyl}-N^2-[2-methyl-4-(3-methyl-1,2,4-oxadiazol-5-yl)phenyl]-N^1-[2-(ethylamino)ethyl]glycinamide], the IC50 is reported as 46 nM.
`CCNCCNC(=O)CN(CC(=O)N(C)N1Cc2ccccc2C1)c1cc2c(cc1C)CN(CC)C2=O` [Example 284, N^2-{2-[1,3-dihydro-2H-isoindol-2-yl(methyl)amino]-2-oxoethyl}-N^2-(2-ethyl-6-methyl-3-oxo-2,3-dihydro-1H-isoindol-5-yl)-N^1-[2-(ethylamino)ethyl]glycinamide dihydrochloride] was tested, and the IC50 was 33 nM.
`CCNCCNC(=O)CN(CC(=O)N(C)N1Cc2ccc(F)cc2C1)c1ccc(-c2nc(C(N)=O)cs2)cc1C` [Example 308, N^2-{4-[4-(aminocarbonyl)-1,3-thiazol-2-yl]-2-methylphenyl}-N^2-{2-[(5-fluoro-1,3-dihydro-2H-isoindol-2-yl)(methyl)amino]-2-oxoethyl}-N^1-[2-(ethylamino)ethyl]glycinamide dihydrochloride] showed an IC50 of 26 nM.
In the case of `CCNCCNC(=O)CN(CC(=O)N(C)N1Cc2ccccc2C1)c1ccc(-c2ccc(C(N)=O)cn2)cc1C` [Example 301, N^2-{4-[5-(aminocarbonyl)pyridin-2-yl]-2-methylphenyl}-N^2-{2-[1,3-dihydro-2H-isoindol-2-yl(methyl)amino]-2-oxoethyl}-N^1-[2-(ethylamino)ethyl]glycinamide dihydrochloride], the IC50 is reported as 37 nM.
`Cc1cc2c(cnn2C)cc1N(CC(=O)NCCNC(C)C)CC(=O)N(C)N1Cc2ccccc2C1` [Example 242, N^2-{2-[1,3-dihydro-2H-isoindol-2-yl(methyl)amino]-2-oxoethyl}-N^2-(1,6-dimethyl-1H-indazol-5-yl)-N^1-[2-(isopropylamino)ethyl]glycinamide hydrochloride] was tested, and the IC50 was 6 nM.
In the case of `CCNCCNC(=O)CN(CC(=O)N(C)N1Cc2cccc(F)c2C1)c1cc(-c2noc(C)n2)ccc1C` [Example 19, N^2-{2-[(4-fluoro-1,3-dihydro-2H-isoindol-2-yl)(methyl)amino]-2-oxoethyl}-N^2-[2-methyl-5-(5-methyl-1,2,4-oxadiazol-3-yl)phenyl]-N^1-[2-(ethylamino)ethyl]glycinamide], the IC50 is reported as 33 nM.
`CCNCCNC(=O)CN(CC(=O)N(C)N1Cc2ccccc2C1)c1cc(C(C)=O)ccc1C` [Example 57, N^2-(5-acetyl-2-methylphenyl)-N^2-{2-[1,3-dihydro-2H-isoindol-2-yl(methyl)amino]-2-oxoethyl}-N^1-[2-(ethylamino)ethyl]glycinamide] was tested, and the IC50 was 42 nM.
`CCNCCNC(=O)CN(CC(=O)N(C)N1Cc2ccccc2C1)c1cc2c(cc1C)CCC2=O` [Example 214, N^2-{2-[1,3-dihydro-2H-isoindol-2-yl(methyl)amino]-2-oxoethyl}-N^2-(6-methyl-3-oxo-2,3-dihydro-1H-inden-5-yl)-N^1-[2-(ethylamino)ethyl]glycinamide] showed an IC50 of 23 nM.
For `CCNCCNC(=O)CN(CC(=O)N(C)N1Cc2ccccc2C1)c1cc2c(cc1C)oc(=O)n2C` [Example 191, N^2-{2-[1,3-dihydro-2H-isoindol-2-yl(methyl)amino]-2-oxoethyl}-N^2-(3,6-dimethyl-1,3-benzoxazol-2(3H)-on-5-yl)-N^1-[2-(ethylamino)ethyl]glycinamide], the IC50 was 51 nM.
`CCNCCNC(=O)CN(CC(=O)N(C)N1Cc2ccccc2C1)c1cc2cn(C)nc2cc1C` [Example 243, N^2-{2-[1,3-dihydro-2H-isoindol-2-yl(methyl)amino]-2-oxoethyl}-N^2-(2,6-dimethyl-2H-indazol-5-yl)-N^1-[2-(ethylamino)ethyl]glycinamide hydrochloride] showed an IC50 of 7 nM.

— patent US20120196824A1, “THERAPEUTIC AGENT FOR CEREBRAL INFARCTION” (MITSUBISHI TANABE PHARMA CORPORATION, priority 2009, published 2012)
